Experimental data taken from patent US20240158446A1, “CYCLIC COMPOUND HAVING SELECTIVE INHIBITORY ACTION ON KRAS OVER HRAS AND NRAS” (CHUGAI SEIYAKU KABUSHIKI KAISHA, priority 2021, published 2024).
Like-named read-outs stand apart in the source and are kept apart here. Where a SMILES comes first, the peptide text is derived from it. Bridges are numbered along the chain shown (N, C = ends). [ ]: non-standard residue; d: D form. The star is where a group is joined. hPhe(3-Cl-4-CF3) = N[C@@H](CCc1ccc(C(F)(F)F)c(Cl)c1)C(=O)O; NPrPhe(4-CF3) = CCCN[C@@H](Cc1ccc(C(F)(F)F)cc1)C(=O)O; NMeGly(cPent) = CN[C@H](C(=O)O)C1CCCC1; Pro(4,4-F2) = O=C(O)[C@@H]1CC(F)(F)CN1; NMeD = CN[C@@H](CC(=O)O)C(=O)O; NMeL = CN[C@@H](CC(C)C)C(=O)O; NMeAbu = CC[C@H](NC)C(=O)O; Morpholide = C1CN(*)CCO1; NMeA = CN[C@@H](C)C(=O)O; Ac5c = NC1(C(=O)O)CCCC1; Aze = O=C(O)[C@@H]1CCN1; Sar = CNCC(=O)O

What was measured:
[1] = target: GDP-bound NRAS wild-type protein (Homo sapiens, UniProt P01111); test: Binding to NRAS by surface plasmon resonance (SPR), Single Cycle Kinetics; settings: for NRAS/KRAS (ratio of KD value with respect to GDP-bound NRAS wild-type protein to KD value with respect to KRAS): SPR KD ratio NRAS/KRAS, class symbols
[2] = target: GDP-bound KRAS wild-type protein (Homo sapiens, UniProt P01116); test: Binding to KRAS by surface plasmon resonance (SPR), Single Cycle Kinetics; settings: GDP-bound KRAS wild-type protein, read-out: KRAS KD
[3] = target: GDP-bound HRAS wild-type protein (Homo sapiens, UniProt P01112); test: Binding to HRAS by surface plasmon resonance (SPR), Single Cycle Kinetics; settings: for HRAS/KRAS (ratio of KD value with respect to GDP-bound HRAS wild-type protein to KD value with respect to KRAS): SPR KD ratio HRAS/KRAS, class symbols
[4] = SPR, GDP-bound NRAS wild-type protein vs GDP-bound KRAS wild-type protein
[5] = SPR Single Cycle Kinetics, 1:1 binding model
[6] = SPR, GDP-bound HRAS wild-type protein vs GDP-bound KRAS wild-type protein

Chain of GDP-bound NRAS wild-type protein (P01111 whole entry): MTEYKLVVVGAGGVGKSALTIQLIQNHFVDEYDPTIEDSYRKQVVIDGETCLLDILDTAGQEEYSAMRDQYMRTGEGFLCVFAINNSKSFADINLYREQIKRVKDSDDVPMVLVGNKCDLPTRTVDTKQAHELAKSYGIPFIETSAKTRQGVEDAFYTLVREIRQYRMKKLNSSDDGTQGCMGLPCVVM
Chain of GDP-bound KRAS wild-type protein (P01116 whole entry): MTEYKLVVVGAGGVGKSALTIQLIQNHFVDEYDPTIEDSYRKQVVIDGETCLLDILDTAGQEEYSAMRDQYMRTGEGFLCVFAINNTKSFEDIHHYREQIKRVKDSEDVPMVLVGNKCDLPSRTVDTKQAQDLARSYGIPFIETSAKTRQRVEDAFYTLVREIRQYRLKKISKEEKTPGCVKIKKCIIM
Chain of GDP-bound HRAS wild-type protein (P01112 whole entry): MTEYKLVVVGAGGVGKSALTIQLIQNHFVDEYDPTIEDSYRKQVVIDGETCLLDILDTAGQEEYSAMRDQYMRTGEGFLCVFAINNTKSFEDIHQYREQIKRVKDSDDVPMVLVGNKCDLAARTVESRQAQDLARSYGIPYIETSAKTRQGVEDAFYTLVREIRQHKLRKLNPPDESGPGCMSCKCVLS

Structure (SMILES) | Kd [2, 5] | Kd ([2]; SPR, Single Cycle Kinetics) | NRAS/KRAS (ratio of KD value for NRAS to KD value for KRAS) [1, 4] | HRAS/KRAS (ratio of KD value for HRAS to KD value for KRAS) [3, 6] | NRAS/KRAS (ratio of KD value with respect to GDP-bound NRAS wild-type protein to KD value with respect to KRAS) [1] | HRAS/KRAS (ratio of KD value with respect to GDP-bound HRAS wild-type protein to KD value with respect to KRAS) [3] | NRAS/KRAS (ratio of KD value with respect to NRAS to KD value with respect to KRAS) [1, 4] | HRAS/KRAS (ratio of KD value with respect to HRAS to KD value with respect to KRAS) [3, 6]
CCCN1C(=O)[C@@H]2CCN2C(=O)[C@H](C)N(C)C(=O)[C@H]([C@@H](C)CC)NC(=O)[C@H](CC(C)C)N(C)C(=O)C[C@@H](C(=O)N2CCOCC2)N(C)C(=O)[C@H](C2CCCC2)N(C)C(=O)C2(CCCC2)NC(=O)[C@@H]2CC(F)(F)CN2C(=O)[C@H](CCc2ccc(C(F)(F)F)c(Cl)c2)NC(=O)CN(C)C(=O)[C@@H]1Cc1ccc(C(F)(F)F)cc1 [PP0196] ([NMeL]I[NMeA][Aze][NPrPhe(4-CF3)][Sar][hPhe(3-Cl-4-CF3)][Pro(4,4-F2)][Ac5c][NMeGly(cPent)][NMeD]-Morpholide; lactam N-11) | 0.15 nM |  | C (A compound having a KD ratio of 0.1 or more and less than 3 is denoted as C) | C (A compound having a KD ratio of 0.1 or more and less than 3 is denoted as C) |  |  |  | 
C#CC[C@H]1C(=O)N[C@@H]([C@@H](C)CC)C(=O)N(C)CC(=O)N(C)[C@H]2C/C=C\CCN(C2=O)[C@@H](Cc2ccc(C(F)(F)F)cc2)C(=O)N(C)CC(=O)N[C@@H](CCc2ccc(C(F)(F)F)c(OC)c2)C(=O)N2CCOC[C@H]2C(=O)NC2(CC(C)(C)C2)C(=O)N(C)[C@@H](C2CCCC2)C(=O)N(C)[C@H](C(=O)N(C)C)CC(=O)N1C [PP2905] | 0.24 nM |  |  |  | AA (a compound having 20 or more is denoted as AA) | A (a compound having 10 or more and less than 20 is denoted as A) |  | 
CCCN1C(=O)[C@@H]2CCN2C(=O)[C@H](C)N(C)C(=O)[C@H]([C@@H](C)CC)NC(=O)[C@H](CC)N(C)C(=O)C[C@@H](C(=O)N2CCOCC2)N(C)C(=O)[C@H](C2CCCC2)N(C)C(=O)C2(CCCC2)NC(=O)[C@@H]2CCCN2C(=O)[C@H](CCc2ccc(C(F)(F)F)c(Cl)c2)NC(=O)CN(C)C(=O)[C@@H]1Cc1ccc(C(F)(F)F)cc1 [PP0194] ([NMeAbu]I[NMeA][Aze][NPrPhe(4-CF3)][Sar][hPhe(3-Cl-4-CF3)]P[Ac5c][NMeGly(cPent)][NMeD]-Morpholide; lactam N-11) | 0.09 nM |  | C (A compound having a KD ratio of 0.1 or more and less than 3 is denoted as C) | B (a compound having 3 or more and less than 10 is denoted as B) |  |  |  | 
CCC[C@H]1C(=O)N[C@@H]([C@@H](C)CC)C(=O)N(C)CC(=O)N(C)[C@H]2C/C=C\CCN(C2=O)[C@@H](Cc2ccc(C(F)(F)F)cc2)C(=O)N(C)CC(=O)N[C@@H](CCc2ccc3sc(F)c(C)c3c2)C(=O)N2C[C@H](OCC)C[C@H]2C(=O)NC2(CC(C)(C)C2)C(=O)N(C)[C@@H](C(CC)CC)C(=O)N(C)[C@H](C(=O)N(C)C)CC(=O)N1C [PP2892] | 0.28 nM |  |  |  | A (a compound having 10 or more and less than 20 is denoted as A) | A (a compound having 10 or more and less than 20 is denoted as A) |  | 
CCO[C@@H]1C[C@H]2C(=O)NC3(CC(C)(C)C3)C(=O)N(C)[C@@H](C(CC)CC)C(=O)N(C)[C@H](C(=O)N(C)C)CC(=O)N(C)[C@H]3CCCC/C=C/c4ccc(cc4)C[C@@H](C(=O)N(C)CC(=O)N[C@@H](CCc4ccc(Cl)c(Cl)c4)C(=O)N2C1)N1CC/C=C\C[C@@H](C1=O)N(C)C(=O)CN(C)C(=O)[C@H]([C@@H](C)CC)NC3=O [PP3045] |  | 0.13 nM | AA (a compound having 20 or more is denoted as AA) | A (a compound having 10 or more and less than 20 is denoted as A) |  |  |  | 

Now from value to molecule, other results behind:

Kd [2, 5] | Kd ([2]; SPR, Single Cycle Kinetics) | Structure (SMILES) | NRAS/KRAS (ratio of KD value for NRAS to KD value for KRAS) [1, 4] | HRAS/KRAS (ratio of KD value for HRAS to KD value for KRAS) [3, 6] | NRAS/KRAS (ratio of KD value with respect to GDP-bound NRAS wild-type protein to KD value with respect to KRAS) [1] | HRAS/KRAS (ratio of KD value with respect to GDP-bound HRAS wild-type protein to KD value with respect to KRAS) [3] | NRAS/KRAS (ratio of KD value with respect to NRAS to KD value with respect to KRAS) [1, 4] | HRAS/KRAS (ratio of KD value with respect to HRAS to KD value with respect to KRAS) [3, 6]
 | 0.6 nM | CCO[C@@H]1C[C@H]2C(=O)NC3(CC=CC3)C(=O)N(C)[C@@H](C3CCCC3)C(=O)N(C)[C@H](C(=O)N3CCOCC3)CC(=O)N(C)[C@@H](COC)C(=O)N[C@@H]([C@@H](C)CC)C(=O)N(C)CC(=O)N(C)[C@H]3CCCCCN(C3=O)[C@@H](Cc3ccc(C(F)(F)F)cc3)C(=O)N(C)CC(=O)N[C@@H](CCc3cc(F)c(C(F)(F)F)c(F)c3)C(=O)N2C1 [PP0842] | B (a compound having 3 or more and less than 10 is denoted as B) | B (a compound having 3 or more and less than 10 is denoted as B) |  |  |  | 
0.59 nM |  | CCO[C@@H]1C[C@H]2C(=O)NC3(CCC3)C(=O)N(C)[C@@H](C3CCCC3)C(=O)N(C)[C@H](C(=O)N3CCOCC3)CC(=O)N(C)[C@@H](CC(C)C)C(=O)N[C@@H]([C@@H](C)CC)C(=O)N(C)CC(=O)N(C)[C@H]3CCCCCN(C3=O)[C@@H](Cc3ccc(C(F)(F)F)cc3)C(=O)N(C)CC(=O)N[C@@H](CCc3cc(F)c(C(F)(F)F)c(F)c3)C(=O)N2C1 [PP0467] |  |  |  |  | B (a compound having 3 or more and less than 10 is denoted as B) | B (a compound having 3 or more and less than 10 is denoted as B)
